From the supplement of paper PMC4977894
Counter-ions that a name gives are not always drawn. ± gives the standard deviation of the averaged measurements.

Experiments:
[1] = test system: Homo sapiens (human subject panel, olfactory perception); assay: perceived odor intensity rating (rating 0-100); higher = stronger perceived smell
Method in brief: (§1)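 Across ten visits of 100 stimuli, 55 healthy human subjects aged 18–50 sniffed 1 mL of each molecule in paraffin oil in randomized order, at both high and low concentrations. The six lowest performers were excluded. Whenever a subject reported smelling a stimulus, they rated it on a computerized slider that started at 50 and had to be moved, and positions were converted to a 0–100 scale. Each familiarity, intensity and pleasantness figure is a mean across subjects.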

[2] = test system: Homo sapiens (human subject panel, olfactory perception); assay: perceived odor pleasantness rating (rating 0-100); higher = more pleasant
Method in brief: as §1

[3] = test system: Homo sapiens (human subject panel, olfactory perception); assay: perceived odor familiarity rating (rating 0-100); higher = more familiar
Method in brief: as §1

[4] = odor dilution in paraffin oil: 1/1,000
[5] = odor dilution in paraffin oil: 1/100,000
[6] = odor dilution in paraffin oil: 1/10,000,000
[7] = odor dilution in paraffin oil: 1/10

Compound	perceived odor intensity rating [1, 4]	perceived odor intensity rating [1, 5]	perceived odor pleasantness rating [2, 4]	perceived odor pleasantness rating [2, 5]	perceived odor familiarity rating [3, 4]	perceived odor familiarity rating [3, 5]	perceived odor intensity rating [1, 6]	perceived odor pleasantness rating [2, 6]	perceived odor familiarity rating [3, 6]	perceived odor intensity rating [1, 7]	perceived odor pleasantness rating [2, 7]	perceived odor familiarity rating [3, 7]
C=C(C)C(=O)OC [Methyl methacrylate]	55 ± 33	15.1 ± 22	39.3 ± 25	47.4 ± 26	45.7 ± 28	37 ± 26						
CC=C(C=O)c1ccccc1 [2-Phenyl-2-butenal]		19.8 ± 24		36.6 ± 25		30.9 ± 30	20.1 ± 29	57.5 ± 21	34.5 ± 24			
CCCC1CCOC(C)S1 (stereo not given) [2-Methyl-4-propyl-1,3-oxathiane]		68.7 ± 25		38.8 ± 30		53.6 ± 33	22.7 ± 30	51 ± 26	27.9 ± 27			
O=C(O)CC(O)(CC(=O)O)C(=O)O [Citric acid]	14.7 ± 22		46.7 ± 28		28.5 ± 31					27.4 ± 28	51.7 ± 26	33.9 ± 30
COc1ccccc1OC(C)=O [2-Methoxyphenyl acetate]	74.2 ± 20	56 ± 30	37.4 ± 27	45.5 ± 27	46.3 ± 30	45.5 ± 30						
CC1CCCCC1=O (stereo not given) [2-Methylcyclohexanone]	74.6 ± 25	12.6 ± 18	31.6 ± 25	50.9 ± 22	49.8 ± 32	33.4 ± 30						
C1CCNCC1 [Piperidine]	76.5 ± 24	28.6 ± 31	13.2 ± 18	48.2 ± 24	53.6 ± 36	39.4 ± 29						
CC(C)CCC(=O)O [4-Methylvaleric acid]		58.6 ± 30		20.8 ± 22		41.8 ± 30	30.9 ± 30	43.3 ± 20	32.5 ± 25			
C=C(C)[C@@H]1CC[C@@H](C)C(=O)C1 [D-Dihydrocarvone]	45.9 ± 29		50.2 ± 23		47.2 ± 28					81.9 ± 16	39.5 ± 26	52.5 ± 34
CCOC(=O)CCCCCCCCC(=O)OCC [Diethyl sebacate]	21.4 ± 25		55.5 ± 26		31.3 ± 31					54.7 ± 27	71.3 ± 21	64.7 ± 28
CCOC=O [Ethyl formate]	16.5 ± 26		48.2 ± 22		24.9 ± 20					51.6 ± 35	36 ± 26	43.9 ± 32
CCCCCCCOC(C)=O [heptyl acetate]	37.1 ± 31		61.6 ± 22		42.6 ± 31					82.2 ± 18	53.4 ± 32	55.8 ± 34
C=C(C)OC(C)=O [Isopropenyl acetate]		27.1 ± 25		46.9 ± 24		31.1 ± 27	18.8 ± 26	45.5 ± 21	38.2 ± 31			
O=C1CCCCC1 [Cyclohexanone (replicate)]	66.5 ± 26	20.8 ± 29	46 ± 27	55.4 ± 24	51.6 ± 30	28.4 ± 28						
C/C(=C\CO)CCC[C@H](C)CCC[C@H](C)CCCC(C)C [Phytol]	19.8 ± 26		44.2 ± 30		25.4 ± 33					68.8 ± 26	28.1 ± 21	47.1 ± 32
CCOC(=O)/C=C/c1ccccc1 [ethyl cinnamate]	61.5 ± 29	55.2 ± 27	54.8 ± 26	63.1 ± 24	43.8 ± 29	43.3 ± 27						
C=C1CCC2CC1C2(C)C (single isomer, unassigned; (-)) [(-)-beta-Pinene]	32.2 ± 31		54.8 ± 22		47.8 ± 29					74.2 ± 22	50.5 ± 30	62.1 ± 31
CCCCCCCCCCCCCCCCO [1-Hexadecanol]	35.8 ± 26		35.4 ± 24		42.6 ± 27					43.5 ± 31	43 ± 24	40.1 ± 30

Compound	perceived odor intensity rating [1, 4]	perceived odor intensity rating [1, 5]	perceived odor pleasantness rating [2, 4]	perceived odor pleasantness rating [2, 5]	perceived odor familiarity rating [3, 4]	perceived odor familiarity rating [3, 5]	perceived odor intensity rating [1, 6]	perceived odor pleasantness rating [2, 6]	perceived odor familiarity rating [3, 6]	perceived odor intensity rating [1, 7]	perceived odor pleasantness rating [2, 7]	perceived odor familiarity rating [3, 7]
CCOC(=O)CCC(=O)OCC [diethyl succinate]	47.1 ± 29		57.7 ± 24		44.4 ± 30					70.6 ± 24	60.9 ± 22	53.4 ± 30
CC(C)CCN [Isoamylamine]		37.5 ± 30		40.2 ± 25		37.5 ± 29	15.1 ± 27	46.1 ± 22	32.1 ± 27			
COc1cc(C)ccc1C(C)C [1-Methyl-3-methoxy-4-isopropylbenzene]	45.5 ± 28	23.1 ± 25	43.8 ± 21	47.5 ± 18	51.6 ± 30	42.9 ± 35						
CC(C)C(=O)O [Isobutyric acid]		56.8 ± 30		25 ± 20		43.5 ± 31	22.6 ± 28	49 ± 27	39.6 ± 26			
CCCCC(=O)O [valeric acid]		47.2 ± 29		24.7 ± 22		31.6 ± 29	34.9 ± 32	37.5 ± 23	45.2 ± 34			
COc1cncc(C(C)C)n1 [2-Methoxy-3(5 or 6)-isopropylpyrazine]	80.8 ± 23	58 ± 30	27.3 ± 26	33.3 ± 22	50 ± 32	45.3 ± 28						
CCCCCCCCCC(C)=O [2-Undecanone]	31.9 ± 28		50.4 ± 22		39.6 ± 30					79.4 ± 22	43.3 ± 32	49.5 ± 32
CCCCCCCCCOC(C)=O [Nonyl acetate]	37.1 ± 28		39.9 ± 19		39 ± 30					77.8 ± 18	34.1 ± 27	46.8 ± 29
CSC [methyl sulfide]	56.4 ± 35	58.8 ± 32	33.6 ± 27	33.4 ± 27	43.7 ± 34	47.3 ± 32						
Cc1cccc(C)n1 [2,6-Dimethylpyridine]	78.1 ± 20	54.1 ± 32	29.8 ± 24	35.3 ± 23	47.3 ± 32	42.5 ± 31						
CSSSC [Dimethyl trisulfide]		77.6 ± 23		22.3 ± 24		52.5 ± 34	63 ± 28	28.1 ± 25	49.1 ± 34			
CCCCC=O [valeraldehyde]		41.3 ± 30		43 ± 25		43.7 ± 26	18.8 ± 22	49.8 ± 26	38.9 ± 28			
NCC(=O)O [Glycine]	17.9 ± 23		53.3 ± 25		40.8 ± 27					50 ± 28	59.4 ± 23	47.3 ± 28
C/C=C(\C)C(=O)OCC/C=C\CC [cis-3-Hexenyl tiglate]	45.7 ± 30		47.6 ± 28		47.9 ± 30					79.2 ± 18	47.2 ± 31	53.4 ± 31
CC/C=C\CCOC(C)=O [cis-3-hexenyl acetate]	76.7 ± 22	41 ± 31	63.8 ± 30	70.9 ± 20	73.6 ± 28	64.7 ± 30						
CCCCCCCCO [octanol]	65.6 ± 26	25 ± 27	49.9 ± 28	46.2 ± 24	51.7 ± 33	38.3 ± 26						
O=CSCc1ccco1 [2-Furanmethanethiol formate]		87.3 ± 14		21.5 ± 23		54.5 ± 36	86.9 ± 14	24.3 ± 28	58.5 ± 35			
